Results taken from ChEMBL document CHEMBL4304811, “Development of a Water-Soluble Indolylmaleimide Derivative IM-93 Showing Dual Inhibition of Ferroptosis and NETosis” (ACS Med Chem Lett, 2019).
Active and inactive are the calls of the source. The rule behind the calls is not given here.

Columns and labels:
[1] = molecular target: Phosphatidylinositol 4,5-bisphosphate 3-kinase catalytic subunit alpha isoform (Homo sapiens) (UniProt P42336); assay: Binding affinity to wild-type human partial length PIK3CA (R108 to N1068 residues) expressed in mammalian expression system assessed as residual binding level at 10 uM by Kinomescan method relative to control
[2] = tested on: Epidermal growth factor receptor (Homo sapiens), P00533 [UNDEFINED MUTATION]; assay: Binding affinity to human partial length EGFR L747-E749del/A750P mutant expressed in bacterial expression system assessed as residual binding level at 10 uM by Kinomescan method relative to control
[3] = molecular target: Ephrin type-A receptor 6 (Homo sapiens) (UniProt Q9UF33); assay: Binding affinity to wild-type human partial length EPHA6 (Y700 to E1046 residues) expressed in bacterial expression system assessed as residual binding level at 10 uM by Kinomescan method relative to control
[4] = molecular target: Serine/threonine-protein kinase ULK1 (Homo sapiens) (UniProt O75385); assay: Binding affinity to wild-type human partial length ULK1 (M1 to T309 residues) expressed in mammalian expression system assessed as residual binding level at 10 uM by Kinomescan method relative to control
[5] = molecular target: Vascular endothelial growth factor receptor 2 (Homo sapiens) (UniProt P35968); assay: Binding affinity to wild-type human partial length VEGFR2 (R787 to P1253 residues) expressed in mammalian expression system assessed as residual binding level at 10 uM by Kinomescan method relative to control
[6] = molecular target: Dual specificity protein kinase CLK4 (Homo sapiens) (UniProt Q9HAZ1); assay: Binding affinity to wild-type human partial length CLK4 (R135 to K481 residues) expressed in bacterial expression system assessed as residual binding level at 10 uM by Kinomescan method relative to control
[7] = molecular target: Serine/threonine-protein kinase NIM1 (Homo sapiens) (UniProt Q8IY84); assay: Binding affinity to wild-type human partial length NIM1 (Q44 to N355 residues) expressed in mammalian expression system assessed as residual binding level at 10 uM by Kinomescan method relative to control
[8] = tested on: THP-1; assay: Inhibition of Pseudomonas aeruginosa-induced pyroptosis in human THP1 cells at 10 uM preincubated for 1 hr followed by bacterial infection and measured after 2 hrs by INT dye based LDH assay; type: functional, cell-based
[9] = molecular target: Non-receptor tyrosine-protein kinase TYK2 (Homo sapiens) (UniProt P29597); assay: Binding affinity to wild-type human partial length TYK2 JH1 catalytic domain (V877 to C1187 residues) expressed in mammalian expression system assessed as residual binding level at 10 uM by Kinomescan method relative to control
[10] = molecular target: Serine/threonine-protein kinase Nek10 (Homo sapiens) (UniProt Q6ZWH5); assay: Binding affinity to wild-type human partial length NEK10 (L488 to R809 residues) expressed in mammalian expression system assessed as residual binding level at 10 uM by Kinomescan method relative to control
[11] = molecular target: Cyclin-G-associated kinase (Homo sapiens) (UniProt O14976); assay: Binding affinity to wild-type human partial length GAK (G13 to Y338 residues) expressed in bacterial expression system assessed as residual binding level at 10 uM by Kinomescan method relative to control
[12] = molecular target: Serine/threonine-protein kinase TAO1 (Homo sapiens) (UniProt Q7L7X3); assay: Binding affinity to wild-type human partial length TAOK1 (M1 to A320 residues) expressed in mammalian expression system assessed as residual binding level at 10 uM by Kinomescan method relative to control
[13] = molecular target: Mitogen-activated protein kinase kinase kinase 5 (Homo sapiens) (UniProt Q99683); assay: Binding affinity to wild-type human partial length ASK1 (E648 to S964 residues) expressed in bacterial expression system assessed as residual binding level at 10 uM by Kinomescan method relative to control
[14] = molecular target: Mitogen-activated protein kinase kinase kinase 20 (Homo sapiens) (UniProt Q9NYL2); assay: Binding affinity to wild-type human partial length ZAK (M1 to L331 residues) expressed in bacterial expression system assessed as residual binding level at 10 uM by Kinomescan method relative to control
[15] = molecular target: Serine/threonine-protein kinase DCLK3 (Homo sapiens) (UniProt Q9C098); assay: Binding affinity to wild-type human partial length DCAMKL3 (E140 to V628 residues) expressed in bacterial expression system assessed as residual binding level at 10 uM by Kinomescan method relative to control
[16] = molecular target: Cyclin-dependent kinase 7 (Homo sapiens) (UniProt P50613); assay: Binding affinity to wild-type human full length CDK7 (M1 to L344 residues) expressed in mammalian expression system assessed as residual binding level at 10 uM by Kinomescan method relative to control
[17] = molecular target: Ephrin type-A receptor 2 (Homo sapiens) (UniProt P29317); assay: Binding affinity to wild-type human partial length EPHA2 (T593 to V891 residues) expressed in bacterial expression system assessed as residual binding level at 10 uM by Kinomescan method relative to control
[18] = molecular target: Serine/threonine-protein kinase STK11 (Homo sapiens) (UniProt Q15831); assay: Binding affinity to wild-type human full length LKB1 (M1 to Q433 residues) expressed in bacterial expression system assessed as residual binding level at 10 uM by Kinomescan method relative to control
[19] = molecular target: Platelet-derived growth factor receptor beta (Homo sapiens) (UniProt P09619); assay: Binding affinity to wild-type human partial length PDGFRB (V582 to Y1009 residues) expressed in bacterial expression system assessed as residual binding level at 10 uM by Kinomescan method relative to control
[20] = tested on: Phosphatidylinositol 4,5-bisphosphate 3-kinase catalytic subunit alpha isoform (Homo sapiens), P42336 [E545A]; assay: Binding affinity to human partial length PIK3CA E545A mutant (R108 to N1068 residues) expressed in mammalian expression system assessed as residual binding level at 10 uM by Kinomescan method relative to control
[21] = molecular target: Peripheral plasma membrane protein CASK (Homo sapiens) (UniProt O14936); assay: Binding affinity to wild-type human partial length CASK (M1 to H315 residues) expressed in mammalian expression system assessed as residual binding level at 10 uM by Kinomescan method relative to control
[22] = molecular target: Interleukin-1 receptor-associated kinase 1 (Homo sapiens) (UniProt P51617); assay: Binding affinity to wild-type human partial length IRAK1 (R194 to S712 residues) expressed in mammalian expression system assessed as residual binding level at 10 uM by Kinomescan method relative to control
[23] = molecular target: Phosphatidylinositol 4,5-bisphosphate 3-kinase catalytic subunit gamma isoform (Homo sapiens) (UniProt P48736); assay: Binding affinity to wild-type human partial length PIK3CG (S144 to A1102 residues) expressed in mammalian expression system assessed as residual binding level at 10 uM by Kinomescan method relative to control
[24] = molecular target: Inhibitor of nuclear factor kappa-B kinase subunit epsilon (Homo sapiens) (UniProt Q14164); assay: Binding affinity to wild-type human full length IKK-epsilon (M1 to V716 residues) expressed in mammalian expression system assessed as residual binding level at 10 uM by Kinomescan method relative to control

Chain of Phosphatidylinositol 4,5-bisphosphate 3-kinase catalytic subunit alpha isoform (Homo sapiens) (P42336 whole entry, the tested form may be a part, canonical isoform): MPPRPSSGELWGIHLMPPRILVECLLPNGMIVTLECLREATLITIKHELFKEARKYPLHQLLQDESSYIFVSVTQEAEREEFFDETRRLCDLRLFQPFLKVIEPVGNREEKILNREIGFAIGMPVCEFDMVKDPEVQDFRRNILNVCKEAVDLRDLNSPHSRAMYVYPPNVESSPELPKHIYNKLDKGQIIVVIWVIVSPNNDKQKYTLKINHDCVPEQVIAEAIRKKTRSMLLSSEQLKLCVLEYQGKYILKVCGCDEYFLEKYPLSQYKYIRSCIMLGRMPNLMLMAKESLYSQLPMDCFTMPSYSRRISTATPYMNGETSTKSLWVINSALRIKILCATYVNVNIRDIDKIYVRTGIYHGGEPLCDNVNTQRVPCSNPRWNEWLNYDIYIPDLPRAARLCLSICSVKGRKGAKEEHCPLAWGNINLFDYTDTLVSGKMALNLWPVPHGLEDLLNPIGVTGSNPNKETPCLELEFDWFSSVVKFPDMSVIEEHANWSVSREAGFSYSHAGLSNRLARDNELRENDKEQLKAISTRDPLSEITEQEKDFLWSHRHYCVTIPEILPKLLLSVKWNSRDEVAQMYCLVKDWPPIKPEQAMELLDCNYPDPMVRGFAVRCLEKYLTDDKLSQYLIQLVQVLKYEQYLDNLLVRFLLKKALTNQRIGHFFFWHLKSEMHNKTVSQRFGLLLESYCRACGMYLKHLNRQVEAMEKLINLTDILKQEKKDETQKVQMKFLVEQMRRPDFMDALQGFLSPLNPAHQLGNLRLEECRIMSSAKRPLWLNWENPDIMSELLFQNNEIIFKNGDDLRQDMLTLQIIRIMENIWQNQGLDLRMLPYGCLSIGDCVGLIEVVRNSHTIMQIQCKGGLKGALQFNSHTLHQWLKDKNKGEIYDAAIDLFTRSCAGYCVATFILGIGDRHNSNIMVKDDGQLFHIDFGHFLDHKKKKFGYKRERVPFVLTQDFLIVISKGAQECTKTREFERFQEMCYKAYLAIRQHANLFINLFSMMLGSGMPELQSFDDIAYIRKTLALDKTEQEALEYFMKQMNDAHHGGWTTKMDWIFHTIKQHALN
Chain of Cyclin-dependent kinase 7 (Homo sapiens) (P50613 whole entry, the tested form may be a part): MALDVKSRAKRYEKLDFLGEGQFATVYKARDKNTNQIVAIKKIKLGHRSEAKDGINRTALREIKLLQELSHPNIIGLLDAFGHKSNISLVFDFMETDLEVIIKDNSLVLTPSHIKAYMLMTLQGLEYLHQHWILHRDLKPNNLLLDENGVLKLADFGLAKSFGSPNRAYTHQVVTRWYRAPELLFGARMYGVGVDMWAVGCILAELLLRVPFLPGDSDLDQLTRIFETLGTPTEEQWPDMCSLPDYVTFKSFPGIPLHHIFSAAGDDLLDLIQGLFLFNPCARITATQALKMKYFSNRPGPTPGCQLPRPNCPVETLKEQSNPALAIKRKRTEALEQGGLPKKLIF
Chain of Serine/threonine-protein kinase DCLK3 (Homo sapiens) (Q9C098 whole entry, the tested form may be a part): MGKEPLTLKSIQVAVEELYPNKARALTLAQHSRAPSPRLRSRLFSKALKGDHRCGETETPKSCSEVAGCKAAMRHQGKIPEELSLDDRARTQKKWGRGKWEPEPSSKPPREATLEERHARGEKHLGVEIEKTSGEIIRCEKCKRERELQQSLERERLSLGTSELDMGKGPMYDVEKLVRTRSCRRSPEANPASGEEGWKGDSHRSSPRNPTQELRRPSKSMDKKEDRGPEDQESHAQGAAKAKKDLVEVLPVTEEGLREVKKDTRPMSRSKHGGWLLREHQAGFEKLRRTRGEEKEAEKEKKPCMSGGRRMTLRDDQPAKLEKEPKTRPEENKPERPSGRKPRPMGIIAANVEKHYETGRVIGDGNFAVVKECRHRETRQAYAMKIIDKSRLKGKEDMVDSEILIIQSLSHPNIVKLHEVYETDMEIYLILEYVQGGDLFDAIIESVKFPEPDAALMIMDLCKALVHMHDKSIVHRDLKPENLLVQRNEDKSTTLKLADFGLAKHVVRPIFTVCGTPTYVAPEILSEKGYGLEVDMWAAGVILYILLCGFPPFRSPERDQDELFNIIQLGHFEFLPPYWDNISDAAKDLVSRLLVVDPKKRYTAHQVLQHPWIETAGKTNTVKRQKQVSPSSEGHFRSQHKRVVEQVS
Chain of Interleukin-1 receptor-associated kinase 1 (Homo sapiens) (P51617 whole entry, looked up, the tested form may be a part, canonical isoform): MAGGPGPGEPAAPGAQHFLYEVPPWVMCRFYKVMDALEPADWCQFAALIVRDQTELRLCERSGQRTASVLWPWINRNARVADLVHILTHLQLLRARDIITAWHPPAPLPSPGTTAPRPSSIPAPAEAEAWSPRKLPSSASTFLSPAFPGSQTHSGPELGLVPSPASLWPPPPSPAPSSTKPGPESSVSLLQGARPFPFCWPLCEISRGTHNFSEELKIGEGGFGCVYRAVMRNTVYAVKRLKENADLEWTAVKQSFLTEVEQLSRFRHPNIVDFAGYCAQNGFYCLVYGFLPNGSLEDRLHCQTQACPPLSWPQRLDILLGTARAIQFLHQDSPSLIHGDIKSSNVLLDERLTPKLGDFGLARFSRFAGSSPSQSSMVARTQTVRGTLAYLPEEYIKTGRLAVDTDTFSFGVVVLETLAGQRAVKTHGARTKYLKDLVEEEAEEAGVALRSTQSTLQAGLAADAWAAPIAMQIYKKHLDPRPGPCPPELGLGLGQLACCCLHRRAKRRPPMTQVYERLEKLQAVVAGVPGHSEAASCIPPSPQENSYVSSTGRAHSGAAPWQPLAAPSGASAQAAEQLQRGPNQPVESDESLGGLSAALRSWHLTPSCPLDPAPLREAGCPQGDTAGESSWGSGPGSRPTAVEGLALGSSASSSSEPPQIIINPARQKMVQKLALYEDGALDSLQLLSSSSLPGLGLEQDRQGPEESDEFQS
Chain of Serine/threonine-protein kinase ULK1 (Homo sapiens) (O75385 whole entry, the tested form may be a part): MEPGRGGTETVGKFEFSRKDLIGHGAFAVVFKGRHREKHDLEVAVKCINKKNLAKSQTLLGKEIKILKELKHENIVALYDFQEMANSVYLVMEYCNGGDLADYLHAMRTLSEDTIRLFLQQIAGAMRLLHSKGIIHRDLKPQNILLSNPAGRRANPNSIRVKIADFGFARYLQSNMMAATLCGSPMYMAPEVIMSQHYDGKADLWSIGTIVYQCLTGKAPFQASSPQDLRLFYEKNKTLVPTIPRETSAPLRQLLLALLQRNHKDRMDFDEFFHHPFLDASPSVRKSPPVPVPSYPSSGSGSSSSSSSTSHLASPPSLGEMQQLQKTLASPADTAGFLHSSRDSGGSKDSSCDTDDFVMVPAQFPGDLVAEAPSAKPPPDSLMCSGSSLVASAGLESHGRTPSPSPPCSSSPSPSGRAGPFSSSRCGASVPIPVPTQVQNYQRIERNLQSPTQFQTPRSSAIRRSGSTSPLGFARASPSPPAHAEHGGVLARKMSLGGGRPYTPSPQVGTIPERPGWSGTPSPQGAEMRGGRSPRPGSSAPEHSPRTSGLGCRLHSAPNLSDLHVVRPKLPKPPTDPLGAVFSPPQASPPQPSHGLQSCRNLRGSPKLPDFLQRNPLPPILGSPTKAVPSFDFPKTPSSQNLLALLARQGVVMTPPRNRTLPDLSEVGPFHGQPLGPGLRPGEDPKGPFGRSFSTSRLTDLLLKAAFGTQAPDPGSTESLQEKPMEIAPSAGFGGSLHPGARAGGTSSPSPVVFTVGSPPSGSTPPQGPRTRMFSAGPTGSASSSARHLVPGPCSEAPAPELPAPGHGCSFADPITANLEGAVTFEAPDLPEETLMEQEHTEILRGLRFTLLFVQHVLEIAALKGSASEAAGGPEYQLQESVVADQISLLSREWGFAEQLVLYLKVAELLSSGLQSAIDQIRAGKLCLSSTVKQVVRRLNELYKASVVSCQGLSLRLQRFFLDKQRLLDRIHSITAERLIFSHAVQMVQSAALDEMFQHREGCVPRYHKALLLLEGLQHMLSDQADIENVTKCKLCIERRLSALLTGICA
Chain of Phosphatidylinositol 4,5-bisphosphate 3-kinase catalytic subunit gamma isoform (Homo sapiens) (P48736 whole entry, looked up, the tested form may be a part, canonical isoform): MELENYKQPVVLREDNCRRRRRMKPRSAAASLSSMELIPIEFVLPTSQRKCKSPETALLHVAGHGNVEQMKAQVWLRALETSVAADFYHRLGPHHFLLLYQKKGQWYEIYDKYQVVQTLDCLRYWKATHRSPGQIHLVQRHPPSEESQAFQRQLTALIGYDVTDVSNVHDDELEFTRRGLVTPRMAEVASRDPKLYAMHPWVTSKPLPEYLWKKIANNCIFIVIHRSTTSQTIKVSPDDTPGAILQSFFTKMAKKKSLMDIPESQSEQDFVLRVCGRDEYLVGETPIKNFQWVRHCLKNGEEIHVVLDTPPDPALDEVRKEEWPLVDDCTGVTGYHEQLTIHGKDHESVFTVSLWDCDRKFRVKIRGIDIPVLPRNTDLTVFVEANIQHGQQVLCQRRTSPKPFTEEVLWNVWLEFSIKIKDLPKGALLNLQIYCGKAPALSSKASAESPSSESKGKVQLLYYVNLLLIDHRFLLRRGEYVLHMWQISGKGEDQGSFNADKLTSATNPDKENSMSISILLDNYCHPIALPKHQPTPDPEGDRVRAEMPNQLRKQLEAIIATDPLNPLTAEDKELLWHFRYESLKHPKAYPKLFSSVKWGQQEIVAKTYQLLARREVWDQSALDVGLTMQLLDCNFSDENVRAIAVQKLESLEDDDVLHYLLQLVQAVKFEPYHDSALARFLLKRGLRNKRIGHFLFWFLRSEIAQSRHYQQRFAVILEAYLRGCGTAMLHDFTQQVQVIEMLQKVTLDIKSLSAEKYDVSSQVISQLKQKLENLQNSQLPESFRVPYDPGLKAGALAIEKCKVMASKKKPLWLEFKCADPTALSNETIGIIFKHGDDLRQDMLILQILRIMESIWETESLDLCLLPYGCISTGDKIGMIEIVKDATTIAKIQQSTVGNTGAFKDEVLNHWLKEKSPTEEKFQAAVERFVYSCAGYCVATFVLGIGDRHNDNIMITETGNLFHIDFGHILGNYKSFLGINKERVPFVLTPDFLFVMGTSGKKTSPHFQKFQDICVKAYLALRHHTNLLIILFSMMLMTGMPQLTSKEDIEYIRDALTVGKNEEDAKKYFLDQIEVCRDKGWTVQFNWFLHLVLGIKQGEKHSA

Work on `CC(C)N1C(=O)C(NCCCN(C)C)=C(c2cn(C)c3ccccc23)C1=O.Cl` yielded an Activity [1] of 76%, an Activity [2] of 88% and an Activity [3] of 100%. The Activity [4] was 79%, the Activity [5] was 66% and the Activity [6] was 95%. The Activity [7] was 90%, the inhibition [8] was “inactive” and the Activity [9] was 82%. It also gave an Activity [10] of 95%, an Activity [11] of 94% and an Activity [12] of 78%. For the same compound, the Activity [13] was 96%, the Activity [14] was 84% and the Activity [15] was 100%. It also gave an Activity [16] of 80%, an Activity [17] of 90% and an Activity [18] of 91%. It also gave an Activity [19] of 99%, an Activity [20] of 95% and an Activity [21] of 92%. For the same compound, the Activity [22] was 66%, the Activity [23] was 70% and the Activity [24] was 77%.
